Measured values reported in PubChem BioAssay AID1918953 (Molecular Pharmacology Branch, DTP, NCI, 2023).
Where “and” joins values, the source holds several entries; their conditions need not be identical. Equal values may be shown once.

Test system: MDA-MB-231 complex spheroid viability
Assay: Anticancer human tumor MDA-MB-231/ATCC cell line growth inhibition;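 further: drug exposure lasted 7 days starting on day 3 of spheroid growth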
Conditions: for viability, T/C: stronger effect = lower value
Source text: Multicellular complex tumor spheroid response to LSD1 Inhibitor Iadademstat in combination with a variety of drugs and investigational agents in selected tumor cell lines
The current study was undertaken to assess response to LSD1 inhibitors in combination with standard-of-care drugs and investigational agents in solid tumor complex spheroid models as well as in the K-562 leukemia. Complex spheroids include a stromal component modeled by human endothelial cells (HUVEC) and fibroblasts modeled by human mesenchymal stem cells (MSCs). The concentration ranges selected for each drug and investigational agent were based upon clinically achievable concentrations if the clinical Cmax of the agent was known.
Compounds. The drugs and investigational agents used in this study are listed on Table 1. All of the agents used, including staurosporine (NSC755774) and gemcitabine (NSC613327), were obtained from the Developmental Therapeutics Program, NCI. FDA-approved anticancer drugs are available from the NCI at http://dtp.nci.nih.gov/branches/dscb/oncology_drugset_explanation.html. Drugs and investigational agents were >95% pure by proton nuclear magnetic resonance (NMR) and liquid chromatography/mass spectrometry (LC/MS). Stock solutions were prepared at 400x in DMSO, stored at -70 degrees C, and diluted in fresh medium prior to their use. The final concentration of DMSO in cell culture wells never exceeded 0.25% (v/v). The FDA-approved anticancer drug set is available from the Developmental Therapeutics Program at https://dtp.cancer.gov/organization/dscb/obtaining/available_plates.htm. All drugs and investigational agents were tested over a range starting from a high concentration at or near the clinical Cmax and decreasing in half-log increments. If the clinical Cmax for an agent had not been determined, the highest concentration tested was 10 microM.
Cell Lines. The patient-derived cancer cell (PDC) lines: 292921-168-R-J2-PDC, K24384-001-R-PDC, and 521955-158-R2-J5-PDC pancreatic carcinomas, 556581-035-R-J1 ovarian carcinoma, 324938-238-R-J1-PDC, 855422-203-R-J1-PDC and 883617-216-R-J1-PDC urothelial bladder carcinomas, 743489-274-T-PDC renal cell carcinoma, 138582-R-J1 Merkel cell tumor, K60290-347-R-J1 and K57222-313-R-J1-PDC glioblastomas, 653999-131-R-J2-PDC, LG0703-F948-PDC, and 349418-098-R-PDC non-small cell lung carcinomas, 885512-296-R-J2-PDC, 171881-019-R-J1-PDC breast carcinomas and 186277-243-T-J2-PDC and 233499-124-R-J2-PDC colon carcinomas were obtained from the NCI Patient-Derived Models Repository (PDMR, https://pdmr.cancer.gov). The established cell lines NCI/ADR-RES (RRID:CVCL_14520 and OVCAR-5 (RRID:CVCL_1628) ovarian carcinomas, 786-O (RRID:CVCL_1051) and A498 (RRID:CVCL_A498) renal cell carcinoma, NCI-H211 (ATCC, cat. CRL-5824; RRID:CVCL_1529), NCI-H196 (ATCC, cat. CRL-5823, RRID:CVCL_1509), SW 1271 (ATCC, cat. CRL-2177, RRID:CVCL_1716) and NCI-H1876 (ATCC, cat. CRL-5902, RRID:CVCL_1503) small cell lung carcinomas, MDA-MB-231 (RRID:CVCL_0062) and MDA-MB-468 (RRID:CVCL_0419)breast carcinomas (10-12). Pooled donor human umbilical vein endothelial cells (HUVEC, Lonza, cat. CC-2519) and human mesenchymal stem cells (hMSC, Lonza, cat. PT-2501) were purchased from Lonza (Walkersville, MD).
Cell Culture. All cells were maintained in an incubator at 37 degrees C and 5% CO2 with 95% humidity. The PDC lines were cultured according to standard operating procedures established by the NCI PDMR (https://pdmr.cancer.gov). Briefly all PDCs were thawed and cultured in Matrigel-coated flasks prepared with a working solution of 1X Ham's F-12 nutrient mix, without supplementation (Invitrogen, Waltham, MA, cat. 11765054), 100 U/mL penicillin-streptomycin (Invitrogen, cat. 15140122), and 2.5% Matrigel (Corning Inc., Corning, NY, cat. 354248) for the first three passages. […]

[1] = curve of first compound, second compound 0.1 µM
[2] = curve of first compound, second compound 0.316 µM
[3] = curve of first compound, second compound 1 µM
[4] = curve of first compound, second compound 3.16 µM
[5] = curve of first compound, second compound 10 µM
[6] = second compound 0.1 µM, first compound 0.0316 µM
[7] = second compound 0.1 µM, first compound 0.1 µM
[8] = second compound 0.316 µM, first compound 0.0316 µM
[9] = second compound 0.316 µM, first compound 0.1 µM
[10] = second compound 1 µM, first compound 0.0316 µM
[11] = second compound 1 µM, first compound 0.1 µM
[12] = second compound 3.16 µM, first compound 0.0316 µM
[13] = second compound 3.16 µM, first compound 0.1 µM
[14] = second compound 10 µM, first compound 0.0316 µM
[15] = second compound 10 µM, first compound 0.1 µM

CC(C)CC(NC(=O)CNC(=O)c1cc(Cl)ccc1Cl)B1OC(=O)CC(CC(=O)O)(C(=O)O)O1 (stereo not drawn) + NC1CC1c1ccc(-c2cccc(O)c2)cc1
IC50 [1]: 4.37 nM
IC50 [2]: 3.09 nM
IC50 [3]: 2.35 nM
IC50 [4]: 2.49 nM
IC50 [5]: 1.01 nM
viability, T/C (second compound 0.1 µM, first compound 0.000316 µM): 85.1%
viability, T/C (second compound 0.1 µM, first compound 0.001 µM): 93.9%
viability, T/C (second compound 0.1 µM, first compound 0.00316 µM): 62.9%
viability, T/C (second compound 0.1 µM, first compound 0.01 µM): 14.6%
viability, T/C [6]: 1.93%
viability, T/C [7]: 1.29%
viability, T/C (second compound 0.316 µM, first compound 0.000316 µM): 67.8%
viability, T/C (second compound 0.316 µM, first compound 0.001 µM): 73.3%
viability, T/C (second compound 0.316 µM, first compound 0.00316 µM): 48.4%
viability, T/C (second compound 0.316 µM, first compound 0.01 µM): 11.8%
viability, T/C [8]: 0.83%
viability, T/C [9]: 0.29%
viability, T/C (second compound 1 µM, first compound 0.000316 µM): 61.7%
viability, T/C (second compound 1 µM, first compound 0.001 µM): 66%
viability, T/C (second compound 1 µM, first compound 0.00316 µM): 44.4%
viability, T/C (second compound 1 µM, first compound 0.01 µM): 13.8%
viability, T/C [10]: 0.95%
viability, T/C [11]: 0.24%
viability, T/C (second compound 3.16 µM, first compound 0.000316 µM): 61.8%
viability, T/C (second compound 3.16 µM, first compound 0.001 µM): 73.7%
viability, T/C (second compound 3.16 µM, first compound 0.00316 µM): 43.4%
viability, T/C (second compound 3.16 µM, first compound 0.01 µM): 12.7%
viability, T/C [12]: 0.98%
viability, T/C [13]: 0.37%
viability, T/C (second compound 10 µM, first compound 0.000316 µM): 48%
viability, T/C (second compound 10 µM, first compound 0.001 µM): 55.2%
viability, T/C (second compound 10 µM, first compound 0.00316 µM): 30.4%
viability, T/C (second compound 10 µM, first compound 0.01 µM): 7.98%
viability, T/C [14]: 0.83%
viability, T/C [15]: 0.27%

O=C(c1cc(Cc2n[nH]c(=O)c3ccccc23)ccc1F)N1CCN(C(=O)C2CC2)CC1
viability, T/C (compound 0.0316 µM): 92.4% and 88.5%
viability, T/C (compound 0.1 µM): 97.9% and 79.2%
viability, T/C (compound 0.316 µM): 85.6% and 79.3%
viability, T/C (compound 1 µM): 72.1% and 69.9%
viability, T/C (compound 3.16 µM): 68.6% and 53.2%
viability, T/C (compound 10 µM): 56.6% and 32.6%
IC50 (curve of compound): > 10000 nM and 3920 nM

NC1CCC(NC2CC2c2ccccc2)CC1 (stereo not drawn)
viability, T/C (compound 0.1 µM): 102% [middle of 25 runs]
viability, T/C (compound 0.316 µM): 106% and 102%
viability, T/C (compound 1 µM): 99.7% [middle of 25 runs]
viability, T/C (compound 10 µM): 61% [middle of 23 runs]
IC50 (compound alone, run of 01/18/2022): > 10000 nM

Nc1ccccc1NC(=O)c1ccc(CNC(=O)OCc2cccnc2)cc1
viability, T/C (compound 0.00949 µM): 81.5% and 86.7%
viability, T/C (compound 0.03 µM): 56.5% and 52.2%
viability, T/C (compound 0.0949 µM): 39.4% and 21.1%
viability, T/C (compound 0.3 µM): 28.1% and 12.2%
viability, T/C (compound 0.949 µM): 15.4% and 4.07%
viability, T/C (compound 3 µM): 3.56% and 0.18%
IC50 (curve of compound): 53.2 nM and 31.4 nM

CC1COCCN1c1cc(C2(S(C)(=N)=O)CC2)nc(-c2ccnc3[nH]ccc23)n1 (stereo not drawn) + NC1CC1c1ccc(-c2cccc(O)c2)cc1
IC50 [1]: 952 nM
IC50 [2]: 749 nM
IC50 [3]: 537 nM
IC50 [4]: 832 nM
IC50 [5]: 490 nM
viability, T/C [6]: 90.7%
viability, T/C [7]: 90.3%
viability, T/C (second compound 0.1 µM, first compound 0.316 µM): 87%
viability, T/C (second compound 0.1 µM, first compound 1 µM): 47.6%
viability, T/C (second compound 0.1 µM, first compound 3.16 µM): 31.5%
viability, T/C (second compound 0.1 µM, first compound 10 µM): 22.4%
viability, T/C [8]: 71.7%
viability, T/C [9]: 74.8%
viability, T/C (second compound 0.316 µM, first compound 0.316 µM): 74.5%
viability, T/C (second compound 0.316 µM, first compound 1 µM): 42%
viability, T/C (second compound 0.316 µM, first compound 3.16 µM): 23.3%
viability, T/C (second compound 0.316 µM, first compound 10 µM): 20.3%
viability, T/C [10]: 53.6%
viability, T/C [11]: 68.1%
viability, T/C (second compound 1 µM, first compound 0.316 µM): 57.4%
viability, T/C (second compound 1 µM, first compound 1 µM): 40.4%
viability, T/C (second compound 1 µM, first compound 3.16 µM): 23.9%
viability, T/C (second compound 1 µM, first compound 10 µM): 20.9%
viability, T/C [12]: 72.4%
viability, T/C [13]: 80.1%
viability, T/C (second compound 3.16 µM, first compound 0.316 µM): 72.7%
viability, T/C (second compound 3.16 µM, first compound 1 µM): 45.6%
viability, T/C (second compound 3.16 µM, first compound 3.16 µM): 23%
viability, T/C (second compound 3.16 µM, first compound 10 µM): 21.1%
viability, T/C [14]: 57.1%
viability, T/C [15]: 59.7%
viability, T/C (second compound 10 µM, first compound 0.316 µM): 56.4%
viability, T/C (second compound 10 µM, first compound 1 µM): 40.1%
viability, T/C (second compound 10 µM, first compound 3.16 µM): 23.6%
viability, T/C (second compound 10 µM, first compound 10 µM): 18.7%

CCc1c2c(nc3ccc(O)cc13)-c1cc3c(c(=O)n1C2)COC(=O)[C@]3(O)CC
viability, T/C (compound 0.000949 µM): 13.4% and 18%
viability, T/C (compound 0.003 µM): 8.18% and 14.8%
viability, T/C (compound 0.00949 µM): 7.45% and 15.4%
viability, T/C (compound 0.03 µM): 9.98% and 5.59%
viability, T/C (compound 0.0949 µM): 5.58% and 0.92%
viability, T/C (compound 0.3 µM): 2.32% and 0.78%
IC50 (curve of compound): < 0.949 nM

COc1cc(Nc2ncc3c(n2)-c2ccc(Cl)cc2C(c2c(F)cccc2OC)=NC3)ccc1C(=O)O
viability, T/C (compound 0.00316 µM): 78.5% and 52.8%
viability, T/C (compound 0.01 µM): 60.9% and 55.1%
viability, T/C (compound 0.0316 µM): 56.1% and 50.4%
viability, T/C (compound 0.1 µM): 57% and 42.6%
viability, T/C (compound 0.316 µM): 50.3% and 38.8%
viability, T/C (compound 1 µM): 41.5% and 23.2%
IC50 (curve of compound): 181 nM and 31.7 nM
